Data: patent publication US4945171A, “Xanthene dyes having a fused (C) benzo ring” (Molecular Probes, Inc., priority 1987, dated 1990)

What was measured:
[1] = absorption spectra (maxima and extinction coefficients) of benzo[c]xanthene dyes; assay type: physicochemical; details: for ABSORPTION, ACID MAXIMA (second) / EXTINCTION COEFFICIENT, ACID MAXIMA (second) / ABSORPTION, ACID MAXIMA (first) / EXTINCTION COEFFICIENT, ACID MAXIMA (first): acid form; for ABSORPTION, ACID MAXIMA (second) / EXTINCTION COEFFICIENT, ACID MAXIMA (second): longer-wavelength maximum; for ABSORPTION, ACID MAXIMA (first) / EXTINCTION COEFFICIENT, ACID MAXIMA (first): shorter-wavelength maximum; for ABSORPTION, BASE MAXIMUM / EXTINCTION COEFFICIENT, BASE MAXIMUM: base form
Description: (§1) A stock solution was prepared by dissolving 7.6 mg of compound 3 in 2.00 ml methanol. The stock solution was diluted ten-fold into 40 mM pH 9.00 potassium phosphate buffer. Absorbance solutions were prepared by further diluting 25 μl of the aqueous stock solution to 2.025 ml with 40 mM potassium phosphate buffers of the appropriate pH.

[2] = fluorescence excitation/emission and quantum yield of benzo[c]xanthene dyes; assay type: physicochemical; details: for FLUORESCENCE, ACID EMIT / FLUORESCENCE, ACID EXCITE: acid form; for FLUORESCENCE, BASE EMIT / FLUORESCENCE, BASE EXCITE: base form; for APPROX. QY. (quantum yield): relative to fluorescein or sulforhodamine 101
Text: Fluorescence data was obtained on a Perkin-Elmer Model 650-40 Fluorescence Spectrophotometer with a Perkin-Elmer/Hitachi 057 X-Y Recorder using a tenfold dilution of the absorbance solutions. An estimate of the quantum yield of the dyes relative to fluorescein or sulforhodamine 101 was obtained by integrating the emission spectrum of the dye excited at the same optical density as the standard.

[3] = determination of the pKa for the benzo[c]xanthene indicators from plot of absorbance ratios versus pH; details: 40 mM potassium phosphate buffers
Description: as §1

physchem = details: 40 mm potassium phosphate buffer
Description: as §1

cells = details: cited from earlier work
[4] = potassium phosphate buffer, pH 7.0

Molecule: 5'-(and-6')-carboxy-3,10-dihydroxy-spiro[7H-benzo[c]xanthene-7,1'(3'H)-isobenzofuran]-3'-one [Compound 2]
- ABSORPTION, ACID MAXIMA (second) [1]: 508 NM
- EXTINCTION COEFFICIENT, ACID MAXIMA (second) [1]: 28.5 10^3 cm^-1 M^-1
- ABSORPTION, ACID MAXIMA (first) [1]: 479 NM
- EXTINCTION COEFFICIENT, ACID MAXIMA (first) [1]: 22.8 10^3 cm^-1 M^-1
- ABSORPTION, BASE MAXIMUM [1]: 537 NM
- EXTINCTION COEFFICIENT, BASE MAXIMUM [1]: 44.4 10^3 cm^-1 M^-1
- FLUORESCENCE, ACID EMIT [2]: 543 NM
- FLUORESCENCE, ACID EXCITE [2]: 514 NM
- FLUORESCENCE, BASE EMIT [2]: 623 NM
- FLUORESCENCE, BASE EXCITE [2]: 543 NM
- APPROX. QY. (quantum yield) [2]: ~0.35
- pKa [3]: 7.80

Molecule: O=C1OC2(c3ccc(O)cc3Oc3c2ccc2cc(O)ccc32)c2ccccc21 (centres unmarked) [Compound 1, 3,10-dihydroxy-spiro[7H-benzo[c]xanthen-7,1'(3'H)-isobenzofuran]-3'-one]
- EXTINCTION COEFFICIENT, ACID MAXIMA (second) [1]: 28.2 10^3 cm^-1 M^-1
- ABSORPTION, ACID MAXIMA (first) [1]: 480 NM
- EXTINCTION COEFFICIENT, ACID MAXIMA (first) [1]: 24.8 10^3 cm^-1 M^-1
- ABSORPTION, BASE MAXIMUM [1]: 537 NM
- EXTINCTION COEFFICIENT, BASE MAXIMUM [1]: 49.7 10^3 cm^-1 M^-1
- FLUORESCENCE, ACID EMIT [2]: 539 NM
- FLUORESCENCE, ACID EXCITE [2]: 513 NM
- FLUORESCENCE, BASE EMIT [2]: 618 NM
- FLUORESCENCE, BASE EXCITE [2]: 540 NM
- APPROX. QY. (quantum yield) [2]: ~0.34
- pKa (physchem): 7.85

Molecule: O=C(O)c1ccc2c(c1)C1(OC2=O)c2cc(Cl)c(O)cc2Oc2c1ccc1cc(O)ccc21 (centres unmarked) [Compound 3]
- ABSORPTION, ACID MAXIMA (second) [1]: 514 NM
- EXTINCTION COEFFICIENT, ACID MAXIMA (second) [1]: 25.3 10^3 cm^-1 M^-1
- ABSORPTION, ACID MAXIMA (first) [1]: 485 NM
- EXTINCTION COEFFICIENT, ACID MAXIMA (first) [1]: 20.5 10^3 cm^-1 M^-1
- ABSORPTION, BASE MAXIMUM [1]: 547 NM
- EXTINCTION COEFFICIENT, BASE MAXIMUM [1]: 40.4 10^3 cm^-1 M^-1
- FLUORESCENCE, ACID EMIT [2]: 546 NM
- FLUORESCENCE, ACID EXCITE [2]: 517 NM
- FLUORESCENCE, BASE EMIT [2]: 630 NM
- FLUORESCENCE, BASE EXCITE [2]: 552 NM
- APPROX. QY. (quantum yield) [2]: ~0.48
- pKa (physchem): 7.65

Molecule: CN(C)c1ccc2c(c1)Oc1c(ccc3cc(O)ccc13)C21OC(=O)c2ccccc21 (centres unmarked) [Compound 5]
- ABSORPTION, ACID MAXIMA (second) [1]: 544 NM
- EXTINCTION COEFFICIENT, ACID MAXIMA (second) [1]: 21.6 10^3 cm^-1 M^-1
- ABSORPTION, ACID MAXIMA (first) [1]: 515 NM
- EXTINCTION COEFFICIENT, ACID MAXIMA (first) [1]: 17.7 10^3 cm^-1 M^-1
- ABSORPTION, BASE MAXIMUM [1]: 573 NM
- EXTINCTION COEFFICIENT, BASE MAXIMUM [1]: 44.1 10^3 cm^-1 M^-1
- FLUORESCENCE, ACID EMIT [2]: 585 NM
- FLUORESCENCE, ACID EXCITE [2]: 549 NM
- FLUORESCENCE, BASE EMIT [2]: 632 NM
- FLUORESCENCE, BASE EXCITE [2]: 582 NM
- APPROX. QY. (quantum yield) [2]: ~0.19
- pKa (physchem): 7.6

Molecule: CCN(CC)c1ccc2c(c1)Oc1c(ccc3cc(O)ccc13)C21OC(=O)c2ccccc21 (centres unmarked) [Compound 6]
- ABSORPTION, ACID MAXIMA (second) [1]: 550 NM
- EXTINCTION COEFFICIENT, ACID MAXIMA (second) [1]: 24.4 10^3 cm^-1 M^-1
- ABSORPTION, ACID MAXIMA (first) [1]: 518 NM
- EXTINCTION COEFFICIENT, ACID MAXIMA (first) [1]: 20.5 10^3 cm^-1 M^-1
- ABSORPTION, BASE MAXIMUM [1]: 577 NM
- EXTINCTION COEFFICIENT, BASE MAXIMUM [1]: 46.4 10^3 cm^-1 M^-1
- FLUORESCENCE, ACID EMIT [2]: 583 NM
- FLUORESCENCE, ACID EXCITE [2]: 557 NM
- FLUORESCENCE, BASE EMIT [2]: 632 NM
- FLUORESCENCE, BASE EXCITE [2]: 582 NM
- APPROX. QY. (quantum yield) [2]: ~0.23
- pKa (physchem): 7.5

Molecule: CCNc1cc2c(cc1C)C1(OC(=O)c3ccccc31)c1ccc3cc(O)ccc3c1O2 (centres unmarked) [Compound 7]
- ABSORPTION, ACID MAXIMA (second) [1]: 522 NM
- ABSORPTION, ACID MAXIMA (first) [1]: 495 NM
- ABSORPTION, BASE MAXIMUM [1]: 552 NM
- FLUORESCENCE, ACID EMIT [2]: 552 NM
- FLUORESCENCE, ACID EXCITE [2]: 525 NM
- FLUORESCENCE, BASE EMIT [2]: 629 NM
- FLUORESCENCE, BASE EXCITE [2]: 558 NM
- APPROX. QY. (quantum yield) [2]: ~0.38
- pKa (physchem): 7.7

Molecule: CN(C)c1ccc2c(c1)Oc1c(ccc3cc(O)ccc13)C21OC(=O)c2cc(C(=O)O)ccc21 (centres unmarked) [Compound 8, 5'-carboxy-10-dimethylamino-3-hydroxy-spiro[7H-benzo[c]xanthene-7,1'(3'H)-isobenzofuran]-3'-one]
- ABSORPTION, ACID MAXIMA (second) [1]: 548 NM
- EXTINCTION COEFFICIENT, ACID MAXIMA (second) [1]: 25.7 10^3 cm^-1 M^-1
- ABSORPTION, ACID MAXIMA (first) [1]: 518 NM
- EXTINCTION COEFFICIENT, ACID MAXIMA (first) [1]: 23.2 10^3 cm^-1 M^-1
- ABSORPTION, BASE MAXIMUM [1]: 574 NM
- EXTINCTION COEFFICIENT, BASE MAXIMUM [1]: 44.9 10^3 cm^-1 M^-1
- FLUORESCENCE, ACID EMIT [2]: 587 NM
- FLUORESCENCE, ACID EXCITE [2]: 556 NM
- FLUORESCENCE, BASE EMIT [2]: 636 NM
- FLUORESCENCE, BASE EXCITE [2]: 581 NM
- APPROX. QY. (quantum yield) [2]: ~0.20
- pKa (physchem): 7.5

Molecule: CCN(CC)c1ccc2c(c1)Oc1c(ccc3cc(O)ccc13)C21OC(=O)c2ccc(C(=O)O)cc21 (centres unmarked) [Compound 9]
- ABSORPTION, ACID MAXIMA (second) [1]: 550 NM
- EXTINCTION COEFFICIENT, ACID MAXIMA (second) [1]: 29.7 10^3 cm^-1 M^-1
- ABSORPTION, ACID MAXIMA (first) [1]: 517 NM
- EXTINCTION COEFFICIENT, ACID MAXIMA (first) [1]: 26.2 10^3 cm^-1 M^-1
- ABSORPTION, BASE MAXIMUM [1]: 577 NM
- EXTINCTION COEFFICIENT, BASE MAXIMUM [1]: 51.5 10^3 cm^-1 M^-1
- FLUORESCENCE, ACID EMIT [2]: 583 NM
- FLUORESCENCE, ACID EXCITE [2]: 558 NM
- FLUORESCENCE, BASE EMIT [2]: 633 NM
- FLUORESCENCE, BASE EXCITE [2]: 582 NM
- APPROX. QY. (quantum yield) [2]: ~0.24
- pKa (physchem): 7.75

Molecule: O=C(O)c1ccc2c(c1)C(=O)OC21c2cc3c4c(c2Oc2c1ccc1cc(O)ccc21)CCCN4CCC3 (centres unmarked) [Compound 11, [h,i]julolidino-spiro[7H-benzo[c]xanthen-7,1'(3'H)-isobenzofuran]-3'-one]
- ABSORPTION, ACID MAXIMA (second) [1]: 569 NM
- EXTINCTION COEFFICIENT, ACID MAXIMA (second) [1]: 19.4 10^3 cm^-1 M^-1
- ABSORPTION, ACID MAXIMA (first) [1]: 529 NM
- EXTINCTION COEFFICIENT, ACID MAXIMA (first) [1]: 22.2 10^3 cm^-1 M^-1
- ABSORPTION, BASE MAXIMUM [1]: 587 NM
- EXTINCTION COEFFICIENT, BASE MAXIMUM [1]: 38.7 10^3 cm^-1 M^-1
- FLUORESCENCE, ACID EMIT [2]: 599 NM
- FLUORESCENCE, ACID EXCITE [2]: 530 NM
- FLUORESCENCE, BASE EMIT [2]: 630 NM
- FLUORESCENCE, BASE EXCITE [2]: 590 NM
- APPROX. QY. (quantum yield) [2]: ~0.35
- pKa (physchem): 7.9

Molecule: CC(=O)Oc1ccc2c3c(ccc2c1)C1(OC(=O)c2cc(C(=O)O)ccc21)c1ccc(N(C)C)cc1O3 (centres unmarked) [Compound 14, 3-acetoxy-5'-carboxy-10-dimethylamino-spiro[7H-benzo[c]xanthene-7,1'(3'H)-isobenzofuran]-3'-one]
- Absorbance maximum (first) [1, 4]: 511 nm
- Absorbance maximum (second) [1, 4]: 540 nm
- extinction coefficient (first maximum) [1, 4]: 24,100 cm^-1 M^-1
- extinction coefficient (second maximum) [1, 4]: 21,700 cm^-1 M^-1

Molecule: N#Cc1c(O)ccc(O)c1C#N [Dihydroxyphthalonitrile]
- membrane permeability (cells): high membrane permeability
- retention by cells (cells; due to its high membrane permeability): not well retained by cells
